Experimental data: US12435092B2, “Substituted imidazo[1,2-A]quinazolines as inhibitors of PARG” (858 Therapeutics, Inc., priority 2022, dated 2025)

Biological target: T1, cellular PARG (Homo sapiens, UniProt Q86W56)
T1 construct: endogenous in cells; host or cells: HeLa
Assay: Nuclear PAR accumulation assay (immunofluorescence high-content imaging)
Format: cell-based
Details: HeLa cells, 1 hour compound treatment then MMS 50 μg/mL for an additional hour
Method: Compound IC50 values for inhibition of cellular PARG were determined using an immunofluorescence high-content imaging assay for nuclear PAR accumulation. HeLa cells were plated at 15,000 cells/well in a 96-well plate the day before compound treatment and then treated with varying concentrations of test compound and incubated for 1 hour at 37° C.+5% CO2. Following test compound treatment, methylmethane sulfonate (MMS) was added to a final concentration of 50 μg/mL and the cells were incubated for an additional hour. Following treatment, the cells were fixed with ice cold 95% methanol and the plates sealed and placed at −20° C. for 15 minutes. The cells were then washed once with phosphate buffered saline (PBS) and permeabilized with 0.1% Triton-X 100 for 20 minutes at room temperature. The cells were again washed once with PBS and incubated with an anti-poly-ADP ribose (PAR) monoclonal antibody (Millipore Part #AM80 clone 10H) diluted 1:1,000 in 5% fetal bovine serum +0.1% Tween-20+PBS overnight at 4° C. The cells were then washed three times with PBS before incubation with a fluorescently conjugated goat anti-mouse antibody (Invitrogen A32723) diluted 1:500 in 5% FBS+0.1% Tween-20+PBS for 1 hour at room temperature. The cells were again washed three times with PBS and the nuclei labeled by incubating with 1 μg/mL DAPI (4′,6-diamidino-2-phenylindole). Nuclear PAR accumulation was evaluated using high-content fluorescence microscopy. Four fields for each well were acquired at 20× magnification resulting in at least 1,000 cells analyzed per well. Using high-content software (CellReporterXpress) the nuclei were detected and segmented using the DAPI channel and the fluorescence intensity of the PAR-Alexa 488 channel was quantified within the nuclei regions. Both the average intensity per nucleus and percent PAR positive cells were quantified. Percent PAR positive cells were identified by having greater anti-PAR labeling above the threshold set with vehicle DMSO treated control cells. Percent inhibition of PARG by test compounds was calculated by normalizing the data to the 0.1% DMSO and reference compound control values, which represent 0% and 100% inhibition of enzymatic activity, respectively. Concentration-response-curves and IC50 values were generated using four parameter logistic curve fit software.

T1 sequence (Q86W56 whole entry): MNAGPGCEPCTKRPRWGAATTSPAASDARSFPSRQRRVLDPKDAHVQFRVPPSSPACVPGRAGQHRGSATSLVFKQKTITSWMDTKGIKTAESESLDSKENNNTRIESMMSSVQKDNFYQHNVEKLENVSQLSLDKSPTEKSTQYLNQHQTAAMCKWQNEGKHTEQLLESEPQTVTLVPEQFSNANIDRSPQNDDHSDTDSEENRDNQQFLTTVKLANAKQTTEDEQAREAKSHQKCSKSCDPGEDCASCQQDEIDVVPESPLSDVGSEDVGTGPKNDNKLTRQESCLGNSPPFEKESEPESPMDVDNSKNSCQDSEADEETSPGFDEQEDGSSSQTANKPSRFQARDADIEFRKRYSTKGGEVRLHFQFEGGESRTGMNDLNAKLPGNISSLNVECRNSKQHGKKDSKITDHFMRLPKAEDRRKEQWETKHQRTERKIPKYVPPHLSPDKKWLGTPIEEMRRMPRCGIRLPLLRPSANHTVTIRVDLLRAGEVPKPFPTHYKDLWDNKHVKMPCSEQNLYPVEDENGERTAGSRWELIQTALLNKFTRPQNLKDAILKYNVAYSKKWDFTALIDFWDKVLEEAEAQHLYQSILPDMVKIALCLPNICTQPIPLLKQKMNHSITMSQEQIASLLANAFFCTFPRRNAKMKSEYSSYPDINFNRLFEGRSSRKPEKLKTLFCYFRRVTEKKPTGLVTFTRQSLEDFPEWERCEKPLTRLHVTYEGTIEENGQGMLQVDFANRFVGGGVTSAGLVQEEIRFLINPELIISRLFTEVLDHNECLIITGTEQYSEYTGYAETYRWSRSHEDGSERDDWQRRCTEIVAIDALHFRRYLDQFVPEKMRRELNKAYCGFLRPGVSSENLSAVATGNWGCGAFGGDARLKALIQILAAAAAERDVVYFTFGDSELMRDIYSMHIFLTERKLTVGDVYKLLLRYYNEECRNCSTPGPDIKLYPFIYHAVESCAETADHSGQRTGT

Structure (SMILES)	IC50 [µM]
Cc1cc(CN2C(=O)c3cc(S(=O)(=O)NC4(C)CC4)ccc3N3C2=NC[C@H]3C(C)C)on1 [Example 12, (R)-1-isopropyl-N-(1-methylcyclopropyl)-4-((3-methylisoxazol-5-yl)methyl)-5-oxo-1,2,4,5-tetrahydroimidazo[1,2-a]quinazoline-7-sulfonamide]	0.1 to 1
CC[C@H]1CN=C2N(Cc3c(C)noc3C)C(=O)c3cc(S(=O)(=O)NC4(C)CC4)ccc3N21 [Example 13, (S)-4-((3,5-dimethylisoxazol-4-yl)methyl)-1-ethyl-N-(1-methylcyclopropyl)-5-oxo-1,2,4,5-tetrahydroimidazo[1,2-a]quinazoline-7-sulfonamide]	1 to 10
CC[C@@H]1CN=C2N(Cc3c(C)noc3C)C(=O)c3cc(S(=O)(=O)NC4(C)CC4)ccc3N21 [Example 14, (R)-4-((3,5-dimethylisoxazol-4-yl)methyl)-1-ethyl-N-(1-methylcyclopropyl)-5-oxo-1,2,4,5-tetrahydroimidazo[1,2-a]quinazoline-7-sulfonamide]	≤ 0.1
C#C[C@H]1CN=C2N(Cc3cnc(C)s3)C(=O)c3cc(S(=O)(=O)NC4(C)CC4)ccc3N21 [Example 15, (S)-1-ethynyl-N-(1-methylcyclopropyl)-4-((2-methylthiazol-5-yl)methyl)-5-oxo-1,2,4,5-tetrahydroimidazo[1,2-a]quinazoline-7-sulfonamide]	0.1 to 1
C#C[C@@H]1CN=C2N(Cc3cnc(C)s3)C(=O)c3cc(S(=O)(=O)NC4(C)CC4)ccc3N21 [Example 16, (R)-1-ethynyl-N-(1-methylcyclopropyl)-4-((2-methylthiazol-5-yl)methyl)-5-oxo-1,2,4,5-tetrahydroimidazo[1,2-a]quinazoline-7-sulfonamide]	≤ 0.1
Cc1ncc(CN2C(=O)c3cc(S(=O)(=O)NC4(C)CC4)ccc3N3C2=NC[C@@H]3C2CC2)s1 [Example 17, (S)-1-cyclopropyl-N-(1-methylcyclopropyl)-4-((2-methylthiazol-5-yl)methyl)-5-oxo-1,2,4,5-tetrahydroimidazo[1,2-a]quinazoline-7-sulfonamide]	0.1 to 1
Cc1ncc(CN2C(=O)c3cc(S(=O)(=O)NC4(C)CC4)ccc3N3C2=NC[C@H]3C2CC2)s1 [Example 18, (R)-1-cyclopropyl-N-(1-methylcyclopropyl)-4-((2-methylthiazol-5-yl)methyl)-5-oxo-1,2,4,5-tetrahydroimidazo[1,2-a]quinazoline-7-sulfonamide]	≤ 0.1
Cc1ncc(CN2C(=O)c3cc(S(=O)(=O)NC4(C)CC4)ccc3N3C2=NC[C@@H]3C(C)C)s1 [Example 19, (S)-1-isopropyl-N-(1-methylcyclopropyl)-4-((2-methylthiazol-5-yl)methyl)-5-oxo-1,2,4,5-tetrahydroimidazo[1,2-a]quinazoline-7-sulfonamide]	> 10
Cc1ncc(CN2C(=O)c3cc(S(=O)(=O)NC4(C)CC4)ccc3N3C2=NC[C@H]3C(C)C)s1 [Example 20, (R)-1-isopropyl-N-(1-methylcyclopropyl)-4-((2-methylthiazol-5-yl)methyl)-5-oxo-1,2,4,5-tetrahydroimidazo[1,2-a]quinazoline-7-sulfonamide]	≤ 0.1
Cc1cc(CN2C(=O)c3cc(S(=O)(=O)NC4(C)CC4)ccc3N3C2=NC[C@@H]3C2CC2)on1 [Example 21, (S)-1-cyclopropyl-N-(1-methylcyclopropyl)-4-((3-methylisoxazol-5-yl)methyl)-5-oxo-1,2,4,5-tetrahydroimidazo[1,2-a]quinazoline-7-sulfonamide]	0.1 to 1
Cc1cc(CN2C(=O)c3cc(S(=O)(=O)NC4(C)CC4)ccc3N3C2=NC[C@H]3C2CC2)on1 [Example 22, (R)-1-cyclopropyl-N-(1-methylcyclopropyl)-4-((3-methylisoxazol-5-yl)methyl)-5-oxo-1,2,4,5-tetrahydroimidazo[1,2-a]quinazoline-7-sulfonamide]	≤ 0.1
CC[C@H]1CN=C2N(Cc3cc(C)no3)C(=O)c3cc(S(=O)(=O)NC4(C)CC4)ccc3N21 [Example 23, (S)-1-ethyl-N-(1-methylcyclopropyl)-4-((3-methylisoxazol-5-yl)methyl)-5-oxo-1,2,4,5-tetrahydroimidazo[1,2-a]quinazoline-7-sulfonamide]	1 to 10
CC[C@@H]1CN=C2N(Cc3cc(C)no3)C(=O)c3cc(S(=O)(=O)NC4(C)CC4)ccc3N21 [Example 24, (R)-1-ethyl-N-(1-methylcyclopropyl)-4-((3-methylisoxazol-5-yl)methyl)-5-oxo-1,2,4,5-tetrahydroimidazo[1,2-a]quinazoline-7-sulfonamide]	≤ 0.1
CCN1C(=O)c2cc(S(=O)(=O)NC3(C)CC3)ccc2N2C1=NC[C@@H]2C1CC1 [Example 25, (S)-1-cyclopropyl-4-ethyl-N-(1-methylcyclopropyl)-5-oxo-1,2,4,5-tetrahydroimidazo[1,2-a]quinazoline-7-sulfonamide]	> 10
CCN1C(=O)c2cc(S(=O)(=O)NC3(C)CC3)ccc2N2C1=NC[C@H]2C1CC1 [Example 26, (R)-1-cyclopropyl-4-ethyl-N-(1-methylcyclopropyl)-5-oxo-1,2,4,5-tetrahydroimidazo[1,2-a]quinazoline-7-sulfonamide]	0.1 to 1
C#C[C@H]1CN=C2N(CC)C(=O)c3cc(S(=O)(=O)NC4(C)CC4)ccc3N21 [Example 27, (S)-4-ethyl-1-ethynyl-N-(1-methylcyclopropyl)-5-oxo-1,2,4,5-tetrahydroimidazo[1,2-a]quinazoline-7-sulfonamide]	1 to 10
C#C[C@@H]1CN=C2N(CC)C(=O)c3cc(S(=O)(=O)NC4(C)CC4)ccc3N21 [Example 28, (R)-4-ethyl-1-ethynyl-N-(1-methylcyclopropyl)-5-oxo-1,2,4,5-tetrahydroimidazo[1,2-a]quinazoline-7-sulfonamide]	0.1 to 1
CC[C@H]1CN=C2N(Cc3cnc(C)s3)C(=O)c3cc(S(=O)(=O)NC4(C)CC4)ccc3N21 [Example 29, (S)-1-ethyl-N-(1-methylcyclopropyl)-4-((2-methylthiazol-5-yl)methyl)-5-oxo-1,2,4,5-tetrahydroimidazo[1,2-a]quinazoline-7-sulfonamide]	1 to 10
CC[C@@H]1CN=C2N(Cc3cnc(C)s3)C(=O)c3cc(S(=O)(=O)NC4(C)CC4)ccc3N21 [Example 30, (R)-1-ethyl-N-(1-methylcyclopropyl)-4-((2-methylthiazol-5-yl)methyl)-5-oxo-1,2,4,5-tetrahydroimidazo[1,2-a]quinazoline-7-sulfonamide]	≤ 0.1
Cc1ncc(CN2C(=O)c3cc(S(=O)(=O)NC4(C)CC4)ccc3N3C2=NC[C@H]3C)s1 [Example 31, (R)-1-methyl-N-(1-methylcyclopropyl)-4-((2-methylthiazol-5-yl)methyl)-5-oxo-1,2,4,5-tetrahydroimidazo[1,2-a]quinazoline-7-sulfonamide]	≤ 0.1
Cc1cc(CN2C(=O)c3cc(S(=O)(=O)NC4(C)CC4)ccc3N3C2=NC[C@H]3C)on1 [Example 32, (R)-1-methyl-N-(1-methylcyclopropyl)-4-((3-methylisoxazol-5-yl)methyl)-5-oxo-1,2,4,5-tetrahydroimidazo[1,2-a]quinazoline-7-sulfonamide]	≤ 0.1
C#C[C@H]1CN=C2N(Cc3cnn(C)c3)C(=O)c3cc(S(=O)(=O)NC4(C)CC4)ccc3N21 [Example 33, (S)-1-ethynyl-4-((1-methyl-1H-pyrazol-4-yl)methyl)-N-(1-methylcyclopropyl)-5-oxo-1,2,4,5-tetrahydroimidazo[1,2-a]quinazoline-7-sulfonamide]	0.1 to 1
C#C[C@@H]1CN=C2N(Cc3cnn(C)c3)C(=O)c3cc(S(=O)(=O)NC4(C)CC4)ccc3N21 [Example 34, (R)-1-ethynyl-4-((1-methyl-1H-pyrazol-4-yl)methyl)-N-(1-methylcyclopropyl)-5-oxo-1,2,4,5-tetrahydroimidazo[1,2-a]quinazoline-7-sulfonamide]	≤ 0.1
Cn1cc(CN2C(=O)c3cc(S(=O)(=O)NC4(C)CC4)ccc3N3C2=NC[C@H]3C2CC2)cn1 [Example 35, (R)-1-cyclopropyl-4-((1-methyl-1H-pyrazol-4-yl)methyl)-N-(1-methylcyclopropyl)-5-oxo-1,2,4,5-tetrahydroimidazo[1,2-a]quinazoline-7-sulfonamide]	≤ 0.1
Cn1cc(CN2C(=O)c3cc(S(=O)(=O)NC4(C)CC4)ccc3N3C2=NC[C@@H]3C2CC2)cn1 [Example 36, (S)-1-cyclopropyl-4-((1-methyl-1H-pyrazol-4-yl)methyl)-N-(1-methylcyclopropyl)-5-oxo-1,2,4,5-tetrahydroimidazo[1,2-a]quinazoline-7-sulfonamide]	0.1 to 1
CCN1C(=O)c2cc(S(=O)(=O)NC3(C)CC3)ccc2N2C1=NC[C@@H]2C(C)C [Example 37, (S)-4-ethyl-1-isopropyl-N-(1-methylcyclopropyl)-5-oxo-1,2,4,5-tetrahydroimidazo[1,2-a]quinazoline-7-sulfonamide]	> 10
